Values joined by “and” are separate entries in the source; they are usually repeats but may differ in a detail not shown here. Equal values may be shown once.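 The compound was tested at five concentrations on cells cultured in 96-well plates, with a 48-hour exposure period. The concentration for 50% growth inhibition is given as GI50. Definition used: TGI = concentration required for complete inhibition of growth.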
Columns and labels:
Assay in all cases: NCI-60 cell line screen, 48 h
LXFL 529 NSCLC = tested on: LXFL 529 NSCLC
XF 498 CNS = tested on: XF 498 CNS
HOP-18 NSCLC = tested on: HOP-18 NSCLC
DMS 273 small cell lung = tested on: DMS 273 small cell lung
KM20L2 colon = tested on: KM20L2 colon
RXF-631 renal = tested on: RXF-631 renal
SNB-78 CNS = tested on: SNB-78 CNS
M19-MEL melanoma = tested on: M19-MEL melanoma
MDA-N = tested on: MDA-N
SN12K1 renal = tested on: SN12K1 renal

| Compound | TGI (LXFL 529 NSCLC) [µM] | TGI (XF 498 CNS) [µM] | TGI (HOP-18 NSCLC) [µM] | TGI (DMS 273 small cell lung) [µM] | TGI (KM20L2 colon) [µM] | TGI (RXF-631 renal) [µM] | TGI (SNB-78 CNS) | TGI (M19-MEL melanoma) [µM] | TGI (MDA-N) | further results |
| --- | --- | --- | --- | --- | --- | --- | --- | --- | --- | --- |
| CC(=O)[CH-]C(C)=O.CC(=O)[CH-]C(C)=O.[Cl-].[O]=[V] | > 100 | 66 | > 100 | 39.7 | – | – | – | – | – | GI50 (LXFL 529 NSCLC): 47.5 µM; GI50 (XF 498 CNS): 17.8 µM; GI50 (HOP-18 NSCLC): > 100 µM; GI50 (DMS 273 small cell lung): 20.9 µM |
| CCC[CH2][Sn]1([CH2]CCC)[O]CC[S]1 | 0.579 | 1.02 | 1.89 | 3.56 | 2.75 | 1.34 | 2.26 µM | 2.75 | – | GI50 (KM20L2 colon): 1410 nM; GI50 (LXFL 529 NSCLC): 0.134 µM; GI50 (RXF-631 renal): 0.285 µM; GI50 (XF 498 CNS): 0.476 µM; GI50 (SNB-78 CNS): 0.494 µM; GI50 (HOP-18 NSCLC): 0.717 µM; GI50 (DMS 273 small cell lung): 1.13 µM; GI50 (M19-MEL melanoma): 0.475 µM |
| COc1ccccc1NC(=O)CC(=O)n1nc(C)c(N=Nc2ccccc2Cl)c1C | > 100 | > 100 | > 100 | > 100 | > 100 | > 31.6 | 57.1 µM | > 100 | > 31.6 µM | – |
| C[N+](C)(C)C1CC([N+](C)(C)C)C2c3ccccc3C21 (configuration not stated) | > 100 | > 100 | – | > 100 | > 100 | > 100 | > 100 µM | > 100 | – | – |
| C1C[OH+]CCNCC[OH+]CC[OH+]CCN1.N.[Cl-].[Pt+4] | > 100 | – | > 100 | > 100 | > 100 | – | – | – | – | GI50 (KM20L2 colon): 22800 nM; GI50 (LXFL 529 NSCLC): > 100 µM; GI50 (HOP-18 NSCLC): 37.5 µM; GI50 (DMS 273 small cell lung): 28.7 µM |
| O=C(O)CN1C(=O)CN=C(c2ccccn2)c2cc(Cl)ccc21 | – | – | – | – | – | – | – | – | > 100 µM | – |
| O=[N+]([O-])c1cc(I)cc(/C=N/NS(=O)(=O)c2ccc(Cl)cc2)c1O | 37.2 | – | 45.5 | 38.5 | > 100 | 45.3 | 70.9 µM | 56.9 | – | – |
| O=C1OC(c2ccc(Cl)cc2)=N/C1=C\c1ccccc1 | – | – | – | – | – | – | – | – | > 100 µM | – |
| COc1c(C)c(OC)c(C(=O)CC(C)C)c(OC)c1C | – | – | – | – | – | – | – | – | > 100 µM | – |
| FC(F)(F)c1nc(SCc2ccc(Cl)cc2)n[nH]1 | – | – | – | – | – | – | – | – | > 100 µM | – |
| NNc1nc2ccccc2o1 | – | – | – | – | – | – | – | – | > 100 µM | – |
| CCc1[nH]nc(C(N)=O)c1N=NN(C)C | – | – | – | – | – | – | – | – | > 100 µM | – |
| O=C(O)CCSC(=O)Nc1cccc2ccccc12 | > 100 | > 100 | > 100 | > 100 | > 100 | > 100 | > 100 µM | > 100 | – | – |
| Brc1ccc(C=NC23CC4CC(CC(C4)C2)C3)cc1 | > 100 | > 100 | > 100 | > 100 | > 100 | > 100 | > 100 µM | > 100 | – | – |
| CC[O-].CC[O-].O=C([CH-]C(=O)c1ccccc1)CCCCCCC(=O)[CH-]C(=O)c1ccccc1.[Ti+4] | > 100 | > 100 | > 100 | > 100 | > 100 | – | > 100 µM | > 100 | – | GI50 (KM20L2 colon): > 100000 nM; GI50 (LXFL 529 NSCLC): > 100 µM; GI50 (XF 498 CNS): > 100 µM; GI50 (SNB-78 CNS): > 100 µM; GI50 (HOP-18 NSCLC): > 100 µM; GI50 (DMS 273 small cell lung): > 100 µM; GI50 (M19-MEL melanoma): > 100 µM |
| CC1OC(CC(=O)O)Cc2c1c(O)c1c(O)cc(-c3cc(=O)c4c(=O)c5c(c(=O)c=4c3=O)CC(CC(=O)O)OC5C)c(O)c1c2O (configuration not stated) | 22.8 | 34.5 | 45.7 | 47 | > 68 | – | > 73 µM | 49 | – | GI50 (MDA-N): 29.1 µM |
| C=CCOc1ccc(N)c([N+](=O)[O-])c1 | – | – | – | – | – | – | – | – | > 100 µM | – |
| Cc1ccc(/C=N/NS(=O)(=O)c2ccccc2)cc1C | > 100 | > 100 | > 100 | > 100 | > 100 | – | > 100 µM | > 100 | – | – |
| CC(C)CCCCCCCCCCCCC(=O)NCC(=O)NC1C(C)OC(Nc2ncnc3nc[nH]c23)C(O)C1O (configuration not stated) | 0.515 | 0.000925 | – | 0.000586 | 0.497 | 0.000583 | 0.00718 µM and 0.00618 µM | 0.014 | – | GI50 (KM20L2 colon): 0.0575 nM; GI50 (LXFL 529 NSCLC): 0.00336 µM; GI50 (XF 498 CNS): 0.000129 µM; TGI (SN12K1 renal): 0.116 µM; GI50 (DMS 273 small cell lung): 1.84e-05 µM; GI50 (M19-MEL melanoma): 0.000861 µM |
| CCOC(=O)CNC(=O)OCc1ccccc1 | > 100 | > 100 | – | > 100 | – | > 100 | > 100 µM | > 100 | – | – |

| Compound | TGI (LXFL 529 NSCLC) [µM] | TGI (XF 498 CNS) [µM] | TGI (HOP-18 NSCLC) [µM] | TGI (DMS 273 small cell lung) [µM] | TGI (KM20L2 colon) [µM] | TGI (RXF-631 renal) [µM] | TGI (SNB-78 CNS) | TGI (M19-MEL melanoma) [µM] | TGI (MDA-N) | further results |
| --- | --- | --- | --- | --- | --- | --- | --- | --- | --- | --- |
| Cc1ccc2[nH]c(O)c(N=Nc3ccccc3[N+](=O)[O-])c2c1 | – | – | – | – | – | – | – | – | > 100 µM | – |
| CCN(CC)CCCNc1n[n+]([O-])c2ccccc2[n+]1[O-] | – | – | – | – | – | – | – | – | > 100 µM | – |
| O=C1NC2(CCCC2)C2CCCCC12O (configuration not stated) | > 100 | > 100 | > 100 | > 100 | – | > 100 | > 100 µM | > 100 | – | – |
| C[C@]12CCc3nonc3C1CC[C@@H]1C2CC[C@@]2(C)C1CC[C@@H]2O (some centres not stated) | > 100 | > 100 | > 100 | > 100 | > 100 | > 100 | > 100 µM | > 100 | – | – |
| CCOC(=O)c1c(-c2ccc(OC)c(O)c2)c(C#N)c(=S)n(C2OC(COC(C)=O)C(OC(C)=O)C(OC(C)=O)C2OC(C)=O)c1-c1ccccc1 (configuration not stated) | – | – | – | – | – | – | – | – | 37.8 µM and > 100 µM | GI50 (MDA-N): 16.8 µM and > 100 µM |
| COc1ccc(-c2cc(=O)c3cc(C)c(C)c(C(=O)O)c3o2)cc1 | > 100 | > 100 | – | > 100 | > 100 | > 100 | > 100 µM | > 100 | – | – |
| CN(C)CCN(C)C(=O)c1cccc2cccc(C(=O)O)c12 | > 100 | > 100 | > 100 | > 100 | > 100 | > 100 | > 100 µM | > 100 | – | – |
| COc1ccc([Se][Se]c2ccc(OC)cc2OC)c(OC)c1 | 4.64 | 3.84 | 4.72 | 19.7 | – | 59.2 | 7.04 µM | 4.68 | – | – |
| N#CC(C(=O)CCC(=O)Nc1cccc(C(F)(F)F)c1)c1ccccc1 (configuration not stated) | > 100 | > 100 | – | > 100 | > 100 | – | > 100 µM | > 100 | – | – |
| Cc1cc(=O)oc2cc3oc(N(C)c4ccccc4)nc(=O)c3cc12 | – | – | – | – | – | – | – | – | > 100 µM | – |
| COc1cc(/C=C2\NC(=O)C3Cc4c(OC)c(C)c(OC)c(OC)c4C2N3C)c(OC)c(C)c1OC (configuration not stated) | > 100 | > 100 | > 100 | > 100 | > 100 | > 100 | > 100 µM | > 100 | – | – |
| Cc1[nH]c2ccccc2c1C1=NO/C(=N\O)C(c2c(C)[nH]c3ccccc23)C1 (configuration not stated) | > 100 | > 100 | > 100 | > 100 | 50.5 | > 100 | > 100 µM | > 100 | – | – |
| O=S1(=O)c2cc(S(=O)(=O)n3ccnc3)ccc2NC2=NCCCN21 | > 100 | – | > 100 | – | 41.7 | – | – | > 100 | – | – |
| CC(=O)NCc1c(C(N)=O)ncn1Cc1ccccc1 | > 100 | > 100 | > 100 | > 100 | > 100 | > 100 | > 100 µM | > 100 | – | – |
| FC(F)(F)c1cc(NC(=S)N2c3ccccc3-n3cccc3C2c2cccnc2)cc(C(F)(F)F)c1 (configuration not stated) | – | – | – | – | – | – | – | – | 32.5 µM | GI50 (MDA-N): 11.6 µM |
| COc1ccc(-c2oc3c(OC)c(OC)c(OC)c(O)c3c(=O)c2OC)cc1O | > 100 | 0.68 | – | 16.3 | 26.1 | 35.8 | > 100 µM | 31.8 | – | GI50 (LXFL 529 NSCLC): < 0.01 µM; GI50 (SNB-78 CNS): < 0.01 µM; GI50 (M19-MEL melanoma): < 0.01 µM |
| O=S(=O)(O)n1ccnc1 (tested in a mixture with another compound) | – | – | – | – | – | – | – | – | > 100 µM | – |
| N#CC1(N2CCCC2)CCC2(CC1)OCCO2 | – | – | – | > 10 | > 100 | – | > 100 µM | > 10 | – | – |
| CO/C=C(\Br)c1ccc2c(c1)OCO2 | > 100 | > 100 | – | > 100 | – | > 100 | > 100 µM | > 100 | – | – |
| COc1ccccc1NC(=O)C1=C(C)NC(C)=C(C(=O)Nc2ccccc2OC)C1c1ccccc1Cl | > 100 | > 100 | > 100 | > 100 | > 100 | > 100 | – | > 100 | – | – |
